Source: paper PMC11787520, “Structural basis of the bifunctionality of Marinobacter salinexigens ZYF650^T glucosylglycerol phosphorylase in glucosylglycerol catabolism” (The Journal of Biological Chemistry, 2024)

What was measured:
MsGGP [1] = target: T1, MsGGP (Marinobacter salinexigens, UniProt A0A5B0VBK8, D289A); assay: ion exchange chromatography, activity relative to wild type; assay type: biochemical; settings: 20 mM GG, 20 mM potassium phosphate, pH 6.6, 45 °C
T1 construct: gene gtfA; full length, 480 residues, subunit 54,844 Da, N-terminal His6 tag (pET28b), E. coli BL21(DE3); six protomers in asymmetric unit

MsGGP [2] = target: T2, MsGGP (Marinobacter salinexigens, UniProt A0A5B0VBK8, E231A); assay: as above; assay type: biochemical; settings: 20 mM GG, 20 mM potassium phosphate, pH 6.6, 45 °C
T2 construct: gene gtfA; full length, 480 residues, subunit 54,844 Da, N-terminal His6 tag (pET28b), E. coli BL21(DE3); six protomers in asymmetric unit

MsGGP [3] = target: T3, MsGGP (Marinobacter salinexigens, UniProt A0A5B0VBK8, D190A); assay: as above; assay type: biochemical; settings: 20 mM GG, 20 mM potassium phosphate, pH 6.6, 45 °C
T3 construct: gene gtfA; full length, 480 residues, subunit 54,844 Da, N-terminal His6 tag (pET28b), E. coli BL21(DE3); six protomers in asymmetric unit

MsGGP [4] = target: T4, MsGGP (Marinobacter salinexigens, UniProt A0A5B0VBK8); assay: X-ray crystal structure, […] Å; assay type: binding; settings: active site, together with glycerol
T4 construct: gene gtfA; full length, 480 residues, subunit 54,844 Da, N-terminal His6 tag (pET28b), E. coli BL21(DE3); six protomers in asymmetric unit

MsGGP [5] = target: T4, MsGGP; assay: X-ray crystal structure, […] Å; assay type: binding; settings: active site of chains A and E; reaction intermediate

SMILES: OCC(CO)O[C@H]1O[C@H](CO)[C@@H](O)[C@H](O)[C@H]1O [2-O-α-Glucosylglycerol]
- enzyme activity relative to wildtype (MsGGP [1]): nearly complete loss of enzyme activity following the mutation of these residues to alanine
- enzyme activity relative to wildtype (MsGGP [2]): nearly complete loss of enzyme activity following the mutation of these residues to alanine
- enzyme activity relative to wildtype (MsGGP [3]): nearly complete loss of enzyme activity following the mutation of these residues to alanine

SMILES: OC[C@H]1O[C@H](O)[C@H](O)[C@@H](O)[C@@H]1O [glucose]
- X-ray crystal structure, 2.5 Å (MsGGP [4]): each protomer features an α-glucose and a glycerol molecule occupying the active site

SMILES: O=P(O)(O)O[C@H]1O[C@H](CO)[C@@H](O)[C@H](O)[C@H]1O [α-D-glucose-1-phosphate]
- X-ray crystal structure, 2.7 Å (MsGGP [5]): the structure of MsGGP in complex with αGlc1-P was successfully determined
